Test results taken from patent publication US4016148A, “Peptide derivatives of phosphonic and phosphinic acids and intermediates therefor” (Hoffmann-La Roche Inc., priority 1975, dated 1977).
Residues, ends and D or L forms follow the SMILES beside them.

Assays:
E. coli [1] = test: Potentiation of antibiotics by the peptide derivative: MIC and fractional inhibitory concentration index against E. coli in Davis minimal medium; assay type: cell-based; conditions: for Fractional Inhibitory Concentration Index: antibiotic in combination with (1R)-1-(L-alanylamino)-ethylphosphonic acid; for Minimum Inhibitory Concentration, Antibiotic + peptide derivative: concentration of the antibiotic: in combination with (1R)-1-(L-alanylamino)-ethylphosphonic acid
Excerpt: The peptide derivatives provided by this invention potentiate the activity of antibiotics (e.g. penicillin and cephalosporin antibiotics and D-cycloserine). Thus, for example the fractional inhibitory concentration indices of (1R)-1-(L-alanylamino)-ethylphosphonic acid in combination with a cephalosporin, with a penicillin antibiotic and with D-cycloserine against E. coli in Davis minimal medium are given in Table 1.

E. coli [2] = test: Fractional inhibitory concentration indices of peptide derivatives in a 2:1 ratio with D-cycloserine against E. coli in Davis minimal medium; assay type: cell-based; conditions: peptide derivative in a 2:1 ratio with D-cycloserine
Excerpt: Again, for example, the fractional inhibitory concentration indices of (1R)-1-(L-alanylamino)-ethylphosphonic acid (Derivative A), (1R)-1-(L-alanyl-L-alanylamino)-ethylphosphonic acid (Derivative B), (1R)-1-(L-alanyl-L-alanyl-L-alanylamino)-ethylphosphonic acid (Derivative C), (1R)-1-(L-alanyl-L-alanyl-L-alanyl-L-alanylamino)-ethylphosphonic acid (Derivative D), (1R)-1-(L-phenylalanylamino)-ethylphosphonic acid (Derivative E), (1R)-1-(L-valylamino)-ethylphosphonic acid (Derivative F) and (1R)-1-(L-leucylamino)-ethylphosphonic acid (Derivative G) in a 2:1 ratio with D-cycloserine against E. coli in Davis minimal medium are given in Table 2.

| Compound | Minimum Inhibitory Concentration, Antibiotic alone (E. coli [1]) [µg/mL] | Fractional Inhibitory Concentration Index (E. coli [1]) | Minimum Inhibitory Concentration, Antibiotic + peptide derivative: concentration of the antibiotic (E. coli [1]) [µg/mL] | Fractional Inhibitory Concentration Index (E. coli [2]) | Fractional Inhibitory Concentration of D-cycloserine (E. coli [2]) | other results |
| --- | --- | --- | --- | --- | --- | --- |
| CC1(C)S[C@@H]2[C@H](NC(=O)[C@H](N)c3ccc(O)cc3)C(=O)N2[C@H]1C(=O)O [Amoxycillin] | 4 | 0.3 | 1 | – | – | – |
| CC1=C(C(=O)O)N2C(=O)[C@@H](NC(=O)[C@H](N)C3=CCC=CC3)[C@H]2SC1 [Cephradine] | 16 | 0.5 | 4 | – | – | – |
| N[C@@H]1CONC1=O [D-Cycloserine] | 64 | 0.25 | 0.25 | – | – | – |
| C[C@H](N)C(=O)N[C@@H](C)P(=O)(O)O [Derivative A, (1R)-1-(L-alanylamino)-ethylphosphonic acid] | – | – | – | 0.3 | 0.06 | Minimum Inhibitory Concentration, Antibiotic + peptide derivative: concentration of the peptide derivative (E. coli [1]; in combination with Amoxycillin): 0.06 µg/mL; Minimum Inhibitory Concentration, Antibiotic + peptide derivative: concentration of the peptide derivative (E. coli [1]; in combination with Cephradine): 0.25 µg/mL; Minimum Inhibitory Concentration, Antibiotic + peptide derivative: concentration of the peptide derivative (E. coli [1]; in combination with D-Cycloserine): 0.25 µg/mL |
| C[C@H](N)C(=O)N[C@@H](C)C(=O)N[C@@H](C)P(=O)(O)O [Derivative B, (1R)-1-(L-alanyl-L-alanylamino)-ethylphosphonic acid] | – | – | – | 0.2 | 0.03 | – |
| C[C@H](N)C(=O)N[C@@H](C)C(=O)N[C@@H](C)C(=O)N[C@@H](C)P(=O)(O)O [Derivative C, (1R)-1-(L-alanyl-L-alanyl-L-alanylamino)-ethylphosphonic acid] | – | – | – | 0.1 | 0.05 | – |
| C[C@H](N)C(=O)N[C@@H](C)C(=O)N[C@@H](C)C(=O)N[C@@H](C)C(=O)N[C@@H](C)P(=O)(O)O [Derivative D, (1R)-1-(L-alanyl-L-alanyl-L-alanyl-L-alanylamino)-ethylphosphonic acid] (HELM PEPTIDE1{A.A.A.A.[C[C@H](N[*:1])P(=O)(O)O]}$$$$V2.0) | – | – | – | 0.2 | 0.10 | – |
| C[C@H](NC(=O)[C@@H](N)Cc1ccccc1)P(=O)(O)O [Derivative E, (1R)-1-(L-phenylalanylamino)-ethylphosphonic acid] | – | – | – | 0.48 | 0.13 | – |
| CC(C)[C@H](N)C(=O)N[C@@H](C)P(=O)(O)O [Derivative F, (1R)-1-(L-valylamino)-ethylphosphonic acid] | – | – | – | 0.60 | 0.13 | – |
| CC(C)C[C@H](N)C(=O)N[C@@H](C)P(=O)(O)O [Derivative G, (1R)-1-(L-leucylamino)-ethylphosphonic acid] | – | – | – | 0.27 | 0.12 | – |
